These are literature values, as cited in patent US6552066B1, “Protein tyrosine kinase inhibitors for treating osteoarthritis” (priority 1995, dated 2003).

The subject of data set [1] is Ca^2+-calmodulin dependent protein kinase II. Particulars: cited from earlier work.
A further data set addresses protein kinase C beta (Homo sapiens, UniProt P05771). Particulars: at 100 μm; cited from earlier work.
In another data set the target is protein kinase C gamma (Homo sapiens, UniProt P05129). Particulars: at 100 μM; cited from earlier work.
The next data set addresses protein kinase C alpha (Homo sapiens, UniProt P17252). As to conditions: at 100 μM; cited from earlier work.
The subject of the next data set is bovine cartilage explant. As to conditions: cited from earlier work.
Data set [2] has as its system progression of osteoarthritis. As to conditions: animals; cited from earlier work.

Sequence of protein kinase C beta (P05771 whole entry): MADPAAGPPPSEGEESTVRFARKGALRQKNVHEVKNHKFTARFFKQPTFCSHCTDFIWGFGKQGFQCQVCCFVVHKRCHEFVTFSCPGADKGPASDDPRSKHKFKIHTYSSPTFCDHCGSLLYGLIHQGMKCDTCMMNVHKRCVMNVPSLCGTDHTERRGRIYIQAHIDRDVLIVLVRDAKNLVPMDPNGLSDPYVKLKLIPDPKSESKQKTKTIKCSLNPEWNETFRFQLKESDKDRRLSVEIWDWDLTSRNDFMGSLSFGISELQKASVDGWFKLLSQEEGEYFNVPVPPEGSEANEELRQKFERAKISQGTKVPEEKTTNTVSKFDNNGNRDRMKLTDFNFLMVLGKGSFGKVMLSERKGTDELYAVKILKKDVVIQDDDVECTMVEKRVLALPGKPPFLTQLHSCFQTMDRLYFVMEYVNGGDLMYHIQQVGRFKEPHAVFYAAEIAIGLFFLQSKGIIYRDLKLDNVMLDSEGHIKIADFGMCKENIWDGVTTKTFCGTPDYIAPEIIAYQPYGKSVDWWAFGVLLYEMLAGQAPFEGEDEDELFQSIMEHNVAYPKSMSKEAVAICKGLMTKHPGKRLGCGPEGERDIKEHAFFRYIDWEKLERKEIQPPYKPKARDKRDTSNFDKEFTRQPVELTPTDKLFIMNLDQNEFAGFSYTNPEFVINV

For the compound `NC1=N/C(=C2/CCNC(=O)c3[nH]ccc32)C(=O)N1` [debromohymenialdisine], the “inhibition of Ca2+-calmodulin dependent protein kinase II” value in data set [1] was 94%. At protein kinase C beta, the “inhibition of protein kinase C beta” value is recorded as 95%. Besides, at protein kinase C gamma, the “inhibition of protein kinase C gamma” value was 108%. Further, the “inhibition of protein kinase C alpha” value at protein kinase C alpha is reported as 97%.

On to `NC1=N/C(=C2/CCNC(=O)c3[nH]ccc32)C(=O)N1` [Z-debromohymenialdisine], for which, in the data set on bovine cartilage explant, the “inhibition of cartilage degradation in the bovine cartilage explant assay” value is on record as “inhibit cartilage degradation”. Further, the progression of osteoarthritis entry in data set [2] is given as “slows the progression of osteoarthritis”.
